According to patent publication US9187539B2, “Compositions having antiangiogenic activity and uses thereof” (The Johns Hopkins University, priority 2005, dated 2015):

Columns and labels:
[1] = system: human umbilical vein endothelial cells (HUVECs); assay: HUVEC proliferation assay (WST-1), 2- and 4-day, 5,000 cells per well; type: cell-based; conditions: for concentration-response profile in words: 2- and/or 4-day assay
Experimental: The effect of the various peptides on cell proliferation was assayed, by administering the peptides to human umbilical vein endothelial cells (HUVECs) in culture. 45 peptides belonging to four distinct families of proteins including the thrombospondin-1 containing proteins, the C-X-C chemokines, collagen derived peptides and peptides from tissue inhibitors of metalloproteinases were tested. The potency of each of the peptides was tested using the proliferation assay at 2 days and 4 days following administration of the peptides and a similar assay using a different cell density at 3 days. In the four-day experiments, the cell medium was changed after the second day of incubation and the peptide was replaced at the initial concentration together with the medium. TNP-470 is an antiangiogenic compound that was used as a positive control for assessing anti-angiogenic efficacy. The activity of each polypeptide was, therefore, expressed as a percentage of TNP-470 activity, i.e., the optical density obtained experimentally is scaled such that the negative control is 0% and the positive control is 100% as explained below (FIG. 4). Each plate included a well having HUVEC cells that received 0.1 μg/ml TNP-470. For example, a peptide having the same effect on endothelial cell proliferation would have 100% of the activity of TNP-470. Note that activity could exceed 100%. In this assay, the effects of the predicted anti-angiogenic fragments on the ability of HUVECs to proliferate was characterized. […] A commonly used methodology to test for proliferation is to monitor the viability and metabolic activity of endothelial cells, in the presence of the anti-angiogenic fragments at different concentrations and various time steps. The cell proliferation reagent WST-1 was used as a substrate/assay to measure the metabolic activity of viable cells. WST-1 is a colorimetric, non-radioactive assay and can be performed in a microplate. It is suitable for measuring cell proliferation, cell viability or cytotoxicity. The assay is based on the reduction a red tetrazolium salt, WST-1, by viable, metabolically active, cells to form the yellow formazan crystals soluble in the cell medium. […] The cells are cultured described above. Once cells have reached 80% confluence they are trypsinized and resuspended in EGM-2. The cell density is estimated using a hemocytometer. All of the endothelial cells used were from passage 4 to passage 8. The proliferation assay involved two steps. During the first step the cells, approximately 5,000 cells per well for a 96-well plate, were seeded without any extracellular matrix substrate on the wells overnight (8 hours). The initial cell culture medium was removed using a multichannel pipetor and the candidate peptides were applied. A logarithmic scale of four different concentrations of 0.01 μg/ml, 0.1 μg/ml, 1 μg/ml and 10 μg/ml of each peptide was used. Each of the concentrations was tested in quadruplicate. The viability of the cells was challenged at 2 and 4 days upon the application of the peptide. As a positive control for decreased viability, 0.1 μg/ml of TNP-470 (O-(chloro-acetyl-carbamoyl) fumagillol, a synthetic analogue of fumagillin; TNP-470 was provided by NCI, was provided along with the medium, and as a negative control for normal viability, the cells were cultured without the addition of any agent. The cells were then incubated with 10 μl per well of the red WST-1 reagent for approximately 2 to 4 hours. During this incubation period, viable cells converted, in their mitochondria, the red WST-1 to the yellow formazan crystals which dissolve in the medium. The second step of the assay involved the quantification of the changes in proliferation which was performed by measuring the change in color after lysing the cells. The samples were read using the ELISA plate reader Victor3 V (Perkin Elmer) at a wavelength of […]. The amount of color produced is directly proportional to the number of viable cells. […]

[2] = system: human umbilical vein endothelial cells (HUVECs); assay: HUVEC proliferation assay (WST-1), 3-day, 2,000 cells per well; type: cell-based; conditions: 3-day assay; for anti-proliferative activity (maximum or stated level), scaled so that TNP-470 = 100%: 0.01-30 μg/ml; for anti-proliferative activity, TNP-470 = 100%: 30 μg/ml peptide; for anti-proliferative activity in words at high peptide concentration: high/highest applied concentration (30 μg/ml where stated); for anti-proliferative activity in words: overall
Experimental: In addition to the 2 and 4 day proliferation experiment where 5,000 cells per well were seeded, the effects of the peptides on the proliferating ability of HUVECs were also studied using cells seeded at a density of 2,000 cells per well. This lower cell seeding density allowed the experiment to be extend for an additional day without changing the cell medium. The effects of the peptides when applied to the cells for 3 consecutive days is also reported herein. The proliferation assay again involved two steps. During the first step 2,000 cells per well for a 96-well plate were seeded without any extracellular matrix substrate on the wells overnight (8 hours). The initial cell culture medium was removed using a multichannel pipetor. To synchronize the cells, the cells were serum starved for 4 hours and the candidate peptides were applied. During serum starvation the cell culture medium was changed from a “full” medium to the “basal” medium, which contained no growth factors or serum. Serum starvation for 4 hours had no effect on the proliferation of the cells. For this assay, the logarithmic scale of four different concentrations of 0.01 μg/ml, 0.1 μg/ml, 1 μg/ml and 10 μg/ml of peptide was used. In addition, a larger concentration of 30 μg/ml peptide was also applied. Each of the concentrations was again tested in quadruplicate. After the third day of peptide application the WST-1 dye was applied for approximately 2 to 4 hours (usually after 3 hours the color saturates). The proliferation was later tested on the ELISA plate reader as described for the 2 and 4 day assay. Note that the 2- and 4-day and the 3-day protocols differed in that 5,000 cells/well versus 2,000 cells/well seeded, respectively.

[3] = 2- and 4-day assay, day not specified
[4] = 2- and 4-day assay, day not specified or constant throughout the four days
[5] = 4 days of peptide application, 0.01-10 μg/ml
[6] = 10 μg/ml peptide, 2- and 4-day assay

## TSWSQCSKTCGTGISTRV [SEQ ID NO: 42, CYR61 AAR05446.1: 234-251]
[1]; [3]
  peptide concentration at which maximum activity was observed: 0.01 µg/mL
[1]; [4]
  anti-proliferative activity (maximum or stated level), scaled so that TNP-470 = 100%: 30%
[1]
  concentration-response profile in words: biphasic
[2]
  peptide concentration at which maximum activity was observed: 0.1 µg/mL
  anti-proliferative activity (maximum or stated level), scaled so that TNP-470 = 100%: 30%

## YCNINEVCHYARRNDKSYWL [SEQ ID NO: 93, α6CIV CAI40758.1: 1526-1545]
[1]; [5]
  anti-proliferative activity (maximum or stated level), scaled so that TNP-470 = 100%: 15%
[2]
  anti-proliferative activity, TNP-470 = 100%: 80%

## NGKKACLNPASPMVQKIIEKIL [SEQ ID NO: 106, GRO-γ/MIP-2β/CXCL3 AAA63184.1: 79-100]
[1]; [3]
  peptide concentration at which maximum activity was observed: 0.01 µg/mL
[1]; [5]
  anti-proliferative activity (maximum or stated level), scaled so that TNP-470 = 100%: 15%
[2]
  peptide concentration at which maximum activity was observed: 0.01 µg/mL

## SPWSPCSTSCGLGVSTRI [SEQ ID NO: 74, WISP-1 AAH74841.1: 221-238]
[1]; 2 days of peptide application
  anti-proliferative activity in words: not statistically significant
[1]; [5]
  anti-proliferative activity (maximum or stated level), scaled so that TNP-470 = 100%: ~20%
[2]
  anti-proliferative activity in words at high peptide concentration: reached higher values
  anti-proliferative activity in words: intermediate levels

## LRRFSTMPFMFCNINNVCNF [SEQ ID NO: 89, α5CIV AAC27816.1: 1510-1529]
[1]; [6]
  anti-proliferative activity, TNP-470 = 100%: 80%
[2]
  anti-proliferative activity in words at high peptide concentration: increased even more
  anti-proliferative activity in words: reproducible

## SPWSKCSAACGQTGVQTRTR [SEQ ID NO: 39, CILP AAQ89263.1: 156-175]
[1]; [6]
  anti-proliferative activity, TNP-470 = 100%: 5%
[1]; 0.01 and 0.1 μg/ml peptide, 2- and 4-day assay
  anti-proliferative activity, TNP-470 = 100%: 15%
[1]; [3]
  peptide concentration at which maximum activity was observed: 1 µg/mL
[1]; [4]
  anti-proliferative activity (maximum or stated level), scaled so that TNP-470 = 100%: ~30%
[1]
  concentration-response profile in words: biphasic activity
[2]
  peptide concentration at which maximum activity was observed: 0.1 µg/mL

## SEWSDCSVTCGKGMRTRQR [SEQ ID NO: 73, VSGP/F-spondin BAB18461.1: 621-639]
[1]
  concentration-response profile in words: biphasic profile
[1]; 2 days of peptide application
  anti-proliferative activity in words: not statistically significant
[1]; 4 days
  peptide concentration at which maximum activity was observed: 0.01 µg/mL
[1]; 4 days of peptide application
  anti-proliferative activity in words: notable activity
[2]
  anti-proliferative activity in words at high peptide concentration: increased activity

## MQCHGRGVCNNRKN [SEQ ID NO: 2, ADAM-12 O43184: 662-675]
[1]; 2 days of peptide application
  anti-proliferative activity in words: showed activity
[2]
  concentration-response profile in words: activity increasing as the peptide concentration increased

## TEWSACSKTCGMGISTRV [SEQ ID NO: 41, CTGF CAC44023.1: 204-221]
[1]; 2 days of peptide application
  anti-proliferative activity in words: low
[1]; 4 days
  peptide concentration at which maximum activity was observed: 1 µg/mL
[1]; [5]
  anti-proliferative activity (maximum or stated level), scaled so that TNP-470 = 100%: 40%
[2]
  anti-proliferative activity in words: resembled those observed in the 2-day assay

## TAWGPCSTTCGLGMATRV [SEQ ID NO: 75, WISP-2 AAQ89274.1: 199-216]
[1]; 0.01 μg/ml peptide, 2- and 4-day assay
  anti-proliferative activity in words at 0.01 μg/ml: quite potent
[1]
  concentration-response profile in words: biphasic response
[2]
  anti-proliferative activity (maximum or stated level), scaled so that TNP-470 = 100%: 20%

## TEWSVCNSRCGRGYQKRTR [SEQ ID NO: 70, UNC5C AAH41156.1: 267-285]
[1]; 2 days of peptide application
  anti-proliferative activity in words: negligible activity
[1]; [5]
  anti-proliferative activity (maximum or stated level), scaled so that TNP-470 = 100%: 20%
[2]
  anti-proliferative activity, TNP-470 = 100%: 40%
  peptide concentration at which maximum activity was observed: 10 µg/mL
  anti-proliferative activity (maximum or stated level), scaled so that TNP-470 = 100%: 20%

## QPWSQCSATCGDGVRERRR [SEQ ID NO: 64, THSD1 AAQ88516.1: 347-365]
[1]; [3]
  peptide concentration at which maximum activity was observed: 0.01 µg/mL
[1]; [4]
  anti-proliferative activity (maximum or stated level), scaled so that TNP-470 = 100%: approximately 20%
[2]
  anti-proliferative activity in words at high peptide concentration: substantial increase in activity

## NGRKACLNPASPIVKKIIEKMLNS [SEQ ID NO: 102, GRO-α/CXCL1 AAP35526.1: 80-103]
[1]; [6]
  anti-proliferative activity in words at 10 μg/ml: statistically insignificant
[1]; [4]
  anti-proliferative activity (maximum or stated level), scaled so that TNP-470 = 100%: 15%
[2]
  anti-proliferative activity in words at high peptide concentration: significantly increased

## NGKEICLDPEAPFLKKVIQKILD [SEQ ID NO: 95, ENA-78/CXCL5 AAP35453.1: 86-108]
[1]; 0.01 μg/ml peptide, 2 days
  anti-proliferative activity, TNP-470 = 100%: approximately 30%
[2]
  anti-proliferative activity in words at high peptide concentration: high activity
  anti-proliferative activity in words: reproducible over all tested concentrations

## GPWEPCSVTCSKGTRTRRR [SEQ ID NO: 49, Properdin AAP43692.1: 143-161]
[1]; [3]
  peptide concentration at which maximum activity was observed: 0.01 µg/mL
[1]; [4]
  anti-proliferative activity (maximum or stated level), scaled so that TNP-470 = 100%: 30%
[1]
  concentration-response profile in words: biphasic response
[1]; [5]
  anti-proliferative activity (maximum or stated level), scaled so that TNP-470 = 100%: 20%
[2]
  anti-proliferative activity in words at high peptide concentration: significantly increased

## ASWSACSVSCGGGARQRTR [SEQ ID NO: 45, Fibulin-6 CAC37630.1: 1745-1763]
[1]
  concentration-response profile in words: biphasic activity
[1]; 2 days
  peptide concentration at which maximum activity was observed: 0.1 µg/mL
[1]; [5]
  anti-proliferative activity (maximum or stated level), scaled so that TNP-470 = 100%: approximately 30%
[2]
  concentration-response profile in words: biphasic response
  peptide concentration at which maximum activity was observed: 0.1 µg/mL
  anti-proliferative activity (maximum or stated level), scaled so that TNP-470 = 100%: 20%

## TEWSACNVRCGRGWQKRSR [SEQ ID NO: 71, UNC5D AAQ88514.1: 259-277]
[1]; [4]
  anti-proliferative activity (maximum or stated level), scaled so that TNP-470 = 100%: 20%
[2]
  concentration-response profile in words: biphasic
  anti-proliferative activity (maximum or stated level), scaled so that TNP-470 = 100%: 30%
